The text below walks through data of the OPERA property sets (Mansouri et al. 2018).

Peptide text beside a SMILES is read from it. * marks the point of attachment. NHtBu = CC(C)(C)N*

What is called logP is the decadic logarithm of the partition coefficient of the neutral form, usually between octanol and water. A higher logP goes with higher lipophilicity. Molecule `C1CNCCN1` returned a logP of -1.5.

On to `CC(=O)c1ccc[nH]1`, for which the logP was 0.93.

Consider `CN(C(=S)c1ccccc1)c1ccccc1`, for which the logP is 3.12.

`Nc1nc2c(ncn2[C@H]2C[C@H](O)[C@@H](CO)O2)c(=S)[nH]1`: the logP was -0.56.

On to `Nc1ccc(Cl)cc1N`, for which the lipophilicity (logP) is 1.28.

The molecule `CCCCCCCCCC1(c2ccncc2)CCC(=O)NC1=O` (stereo not drawn) gave a logP of 4.64.

In the case of `N#Cc1cccc([N+](=O)[O-])c1`, the logP was 1.17.

Molecule `NN1CCCCC1` showed a logP of -0.28.

`CC(=O)Oc1ccccc1C(F)(F)F` gave a logP of 2.59.

As for `CCNc1nc(NC(C)C(C)C)nc(SC)n1` (stereo not drawn), the logP was 3.9.

Molecule `CC(C)COC(=O)c1cc(O)c(O)c(O)c1` returned a logP of 2.46.

For the molecule `CC(=O)OCc1coc(Cc2ccccc2)c1`, the logP came out at 3.24.

Turning to `OCCNCc1ccccc1`, the logP worked out at 0.79.

The molecule `Clc1ccc(Cl)cc1` came in with a logP of 3.44.

Molecule `O=C1C=CC(=O)C=C1` returned a logP of 0.2.

Regarding `O=[N+]([O-])c1ccccc1CO`, the logP amounted to 1.24.

The molecule `CCOC(=O)C(=Cc1ccc(Cl)c(Cl)c1)C(C)=O` returned a logP of 3.92.

On to `c1ccc2nnccc2c1`, for which the logP is 0.93.

`CC(C)N(N=Nc1ccc(C(N)=O)cc1)C(C)C`: the logP stood at 3.

The molecule `Cc1cc2[nH]c(=O)c(=O)[nH]c2cc1C` registered a logP of 1.34.

As to `CCCCCOCc1ccccc1NC(=O)OCCN1CCCCC1`, the logP turned out to be 4.42.

For `O=C1C=CCCC1`, the logP stood at 0.61.

Consider `CNC(=S)NCc1ccccc1`, for which the logP stood at 1.35.

As to `Fc1ccccc1Cn1cc[nH]c1=S`, the logP is 1.77.

Molecule `CCOC(=O)Nc1ccccc1` yielded a logP of 2.3.

Consider `CCCCCCOC(=O)n1cnc(C)c1CSCCNC(=NC#N)NC`, for which the logP turned out to be 3.1.

On to `c1cnc2nccnc2c1`, for which the logP was -0.04.

`CCc1nnc(N)o1` came in with a logP of -0.3.

Turning to `O=[N+]([O-])CCO`, the logP was -0.42.

Molecule `CC(=O)Nc1cccc(C)c1` showed a logP of 1.68.

For `Clc1cccc(-c2cc(Cl)ccc2Cl)c1`, the logP was determined as 5.76.

`O=COc1ccccc1` had a logP of 1.26.

Regarding `c1ccc(-c2ccncc2)nc1`, the logP is 1.58.

The molecule `CCC(CC)C(=O)NC(N)=O` came in with a logP of 0.91.

On to `Cc1ccc2cc(C)ccc2c1`, for which the logP is 4.31.

Turning to `CCCCN1CCCCC1C(=O)Nc1c(C)cccc1C` (stereo not drawn), the logP is 3.41.

In the case of `COc1ccc(N(C)C)cc1`, the log partition coefficient (logP) was 1.42.

`COc1ccc(OC(C)=O)cc1` gave a logP of 1.54.

`O=C(CN1CCCCC1)Nc1ccc(F)cc1`: the logP is 2.7.

As for `CCNc1nc(NCC(C)C)nc(SC(F)F)n1`, the logP was 4.3.

As to `O=[N+]([O-])c1cccc(Cl)c1`, the logP is 2.46.

Consider `FC(F)(F)c1cccc(C(F)(F)F)c1`, for which the logP was 3.83.

With `CCCCCCOc1cccc(NC(=O)OCCN2CCCCC2)c1`, the logP amounted to 5.51.

The molecule `O=C(Nc1ccccc1)c1cccnc1` registered a logP of 1.73.

`CC1CCCC(C)N1` (stereo not drawn) had a logP of 1.53.

In the case of `CCCC(=O)NN`, the logP was -0.62.

The molecule `CNCC(c1ccccc1)C(C)C` (stereo not drawn) returned a logP of 3.12.

For `C=CCN1CC[C@]23CCCC[C@H]2[C@H]1Cc1ccc(O)cc13`, the logP was 3.48.

In turn, `COP(=S)(OC)SCSc1ccc(Cl)cc1` gave a logP of 4.82.

In turn, `CCOC(=O)C(=Cc1cccc([N+](=O)[O-])c1)C(=O)OCC` had a logP of 2.71.

Turning to `CCCNC(C)C(=O)Nc1ccccc1C` (stereo not drawn), the logP was 2.11.

`O=c1nccc[nH]1` showed a logP of -1.62.

`O=S(Cc1ccccc1)Cc1ccccc1` displayed a logP of 1.99.

On to `CNC(=S)N(C)C`, for which the logP came to 0.1.

`CC(C)CN(N=O)C(N)=O` yielded a logP of 1.04.

`O=C(O)COc1ccc(Br)cc1` displayed a logP of 2.45.

Molecule `Nc1ccc(/N=N/c2ccccc2)cc1` came in with a logP of 3.41.

Take `COC(=O)c1ccccc1S(I)=C(N(C)C)N(C)C` (stereo not drawn): the logP was -0.7.

For the molecule `NN(c1ccccc1)c1ccccc1`, the logP came to 2.8.

`O=P(O)(O)c1ccccc1` had a logP of 0.54.

The molecule `O=NN(CCCl)C(=O)NC1CCCCC1` gave a logP of 2.83.

Molecule `c1ccc2c(c1)CCO2` gave a logP of 2.14.

As to `ClCCc1ccccc1`, the lipophilicity (logP) was determined as 2.95.

Take `CCS(=O)(=O)CCn1c([N+](=O)[O-])cnc1C`: the logP is -0.35.

The molecule `N#Cc1cnc2ccccc2c1` displayed a logP of 1.57.

Regarding `COP(=S)(OC)Oc1ccc([N+](=O)[O-])c(C)c1`, the log partition coefficient (logP) was 3.3.

Take `OCCCO`: the logP was -1.04.

Molecule `CCCC(=NOCC)C1C(=O)CC2(CCC(C)C2)OC1=O` (stereo not drawn) displayed a logP of 3.66.

On to `COc1ccc(N=NN(C)C)cc1`, for which the logP is 2.99.

`O=C(CCl)Nc1ccccc1` returned a logP of 1.63.

On to `COc1cc(NCc2ccc3nc(N)nc(N)c3c2C)cc(OC)c1OC`, for which the logP stood at 2.55.

`Brc1ccoc1` registered a logP of 2.18.

`C=CBr` showed a logP of 1.57.

`CC(C)C(=O)C(C)C` had a logP of 1.86.

`N#Cc1ccc([N+](=O)[O-])cc1` yielded a logP of 1.19.

`O=C(O)COc1cccc(NC(=O)c2ccccc2)c1`: the logP turned out to be 1.99.

As to `Clc1cc(Cl)c(-c2c(Cl)ccc(Cl)c2Cl)cc1Cl`, the logP is 7.28.

For the molecule `Clc1ccc(Cl)c(Cl)c1`, the logP was 4.02.

Molecule `CN(C)C(=O)Nc1ccc(F)cc1` showed a lipophilicity (logP) of 1.13.

`CCOP(=S)(OCC)Oc1ccc(Cl)cc1Cl` showed a logP of 5.14.

As to `CN(C1CCCCC1)C1CCCCC1`, the logP turned out to be 3.71.

The molecule `CN` returned a logP of -0.57.

`CC(=O)c1cc2ccccc2nn1` showed a logP of 1.44.

Regarding `CNC(=O)Oc1ccc([N+](=O)[O-])cc1`, the logP came to 1.47.

`CN1C(=O)CCC1=O` returned a logP of -0.95.

In turn, `OC(c1ccc(Cl)cc1)(c1cncnc1)c1ccccc1Cl` (stereo not drawn) gave a logP of 3.6.

`c1ccc(-c2cc3ccccc3[nH]2)nc1` had a logP of 3.33.

With `Nc1c2ccccc2nc2ccccc12`, the logP was determined as 2.74.

For `N#CCCl`, the logP was 0.45.

Regarding `CCC[C@@H]1C[C@@H](C(=O)N[C@@H]([C@H]2O[C@H](SC)[C@H](O)[C@@H](O)[C@H]2O)[C@@H](C)O)N(C)C1`, the logP was 0.2.

Turning to `CC(=O)c1ccc(C(C)C)cc1`, the logP came out at 2.98.

`CS/C(C)=N/OC(=O)N(C)SN(C)C(=O)O/N=C(\C)SC` yielded a logP of 1.7.

`FCCCc1ccccc1` came in with a logP of 2.95.

`CCCc1ccc(C(=O)OCCN(C)C)cc1` had a logP of 3.63.

`CC(N)(Cc1ccc(O)cc1)C(=O)O` (stereo not drawn) displayed a logP of -1.89.

Consider `OCc1cccs1`, for which the logP is 0.87.

In the case of `CC(C)OC(=O)c1cc(O)c(O)c(O)c1`, the logP was 1.54.

Molecule `Cc1cc(C)[nH]n1` registered a log partition coefficient (logP) of 1.01.

`Oc1ccc(Br)cc1Br`: the logP stood at 3.22.

As for `CC(=O)c1ccc(C)cc1`, the logP is 2.1.

With `Clc1cccc(-c2cccc(Cl)c2Cl)c1`, the logP was determined as 5.57.

`CC(=O)Oc1ccccc1I`: the logP was found to be 2.55.

Molecule `CC(C)C(C)O` (stereo not drawn) returned a logP of 1.28.

`c1ccc(-c2cccc(-c3ccccc3)n2)cc1` came in with a logP of 4.82.

In turn, `CC(C)(C)C(=O)OCC1CCC(n2cnc3c(=O)[nH]cnc32)O1` (stereo not drawn) came in with a logP of 0.6.

As to `CCCCOc1ccc(O)cc1`, the logP amounted to 2.9.

As to `Oc1c(Cl)ccc(Cl)c1Cl`, the logP turned out to be 3.77.

As to `CCOC(=O)C(C#N)=NNc1ccccc1Cl`, the logP was 3.38.

Molecule `CCOC(=O)c1ccccc1N` gave a logP of 2.57.

Regarding `OCc1cccc(Cl)c1`, the logP came out at 1.94.

For the molecule `CC(=O)Oc1ccccc1C(=O)O`, the logP was determined as 1.19.

`CC(C)c1ccccc1OCC(=O)O` had a logP of 2.84.

Consider `c1ccc(-c2cc3ccccn3c2)cc1`, for which the logP came out at 4.29.

`N#Cc1cccc(O)c1` registered a logP of 1.7.

`CC(C)=NOCCOC(=O)[C@@H](C)Oc1ccc(Oc2cnc3cc(Cl)ccc3n2)cc1`: the logP was found to be 4.6.

As for `CNC(=O)COc1ccccc1`, the logP was determined as 1.02.

`c1ccc(OCCOc2ccccc2)cc1` returned a logP of 3.81.

Consider `C1OC1CN1CCN(CC2CO2)CC1` (stereo not drawn), for which the logP is -0.84.

`CCCCOC(=O)c1ccc(C(=O)OCCCC)cc1` yielded a logP of 5.53.

For the molecule `Nc1ncnc2nc(-c3ccccc3)[nH]c12`, the logP worked out at 2.31.

The molecule `CCCCOC(=O)N(C)SN(C)C(=O)Oc1cccc2c1OC(C)(C)C2` yielded a logP of 4.7.

In turn, `CCCOc1cncc(C)n1` showed a logP of 2.29.

Molecule `O=[N+]([O-])c1nccn1CC(F)CO` (stereo not drawn) came in with a logP of -0.38.

The molecule `Cc1cc2c(cc1C)C(=O)C=CC2=O` yielded a logP of 2.49.

The molecule `O=NN1CCSCC1` returned a logP of 0.4.

As to `O=C(O)COc1ccc(Cl)c(Cl)c1`, the logP came out at 2.81.

Consider `CNC(=O)Nc1ccc(OC)c(Cl)c1`, for which the logP worked out at 1.76.

`Cc1ccc(C(=O)NN)cc1`: the logP is 0.72.

In turn, `O=C(O)c1ccncc1` registered a logP of 0.32.

Molecule `NC(=O)c1cnc2ccccc2c1` displayed a logP of 1.06.

Molecule `O=C1CC(Sc2ccccc2)N1` (stereo not drawn) had a logP of 1.58.

Molecule `OCCCc1ccccc1` gave a logP of 1.88.

`Nc1ccc(N)cc1` gave a logP of -0.3.

`O=C(Cn1c(=O)sc2ccc(Cl)cc21)N1CCNCC1` came in with a lipophilicity (logP) of 1.35.

For `C=CC(=O)OCCO`, the logP was -0.21.

`CN(C)C(=O)Nc1cccc(CCc2ccccc2)c1` showed a logP of 3.21.

`Oc1ccc(Oc2ccccc2)cc1` yielded a logP of 3.35.

As to `CC(=O)NC(C)C(=O)NC(Cc1ccccc1)C(=O)NC(C)C(=O)NC(C)(C)C` (stereo not drawn) (Ac-Ala-Phe-Ala-NHtBu; configuration not given here), the logP came out at 1.01.

The molecule `COc1ccccc1OCC(=O)NNC(C)C` gave a logP of 1.11.

Molecule `O=[N+]([O-])c1ccccc1F` came in with a logP of 1.69.

`Fc1cccc2cccnc12` yielded a logP of 2.19.

With `O=C(NCc1ccccc1)c1ccco1`, the logP was 1.81.

Regarding `CCCc1cc(OC)c(CC(C)N)cc1OC` (stereo not drawn), the logP came out at 3.37.
